Results: PubChem BioAssay (NCI)
Values joined by “and” are separate entries in the source; they are usually repeats but may differ in a detail not shown here. Equal values may be shown once.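 Growth conditions: 96-well plates. Treatment: test compound, 48 hours, 5 concentrations. Analysis: linear interpolation between bracketing concentrations; unreached endpoints set to highest concentration. GI50 = concentration required for 50% inhibition of growth. TGI marks complete inhibition of growth.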

Legend:
Test in all cases: NCI-60 cell line screen, 48 h
ACHN renal = tested on: ACHN renal
CAKI-1 renal = tested on: CAKI-1 renal
COLO 205 colon = tested on: COLO 205 colon
DU-145 prostate = tested on: DU-145 prostate
HCC-2998 colon = tested on: HCC-2998 colon
MALME-3M melanoma = tested on: MALME-3M melanoma
MDA-MB-435 = tested on: MDA-MB-435
SF-539 CNS = tested on: SF-539 CNS
SK-OV-3 ovarian = tested on: SK-OV-3 ovarian
SNB-19 CNS = tested on: SNB-19 CNS

| SMILES | TGI (ACHN renal) | TGI (CAKI-1 renal) | TGI (COLO 205 colon) | TGI (DU-145 prostate) | TGI (HCC-2998 colon) | TGI (MALME-3M melanoma) | TGI (MDA-MB-435) | TGI (SF-539 CNS) | TGI (SK-OV-3 ovarian) | TGI (SNB-19 CNS) | GI50 (ACHN renal) | GI50 (CAKI-1 renal) | GI50 (COLO 205 colon) | GI50 (DU-145 prostate) | GI50 (HCC-2998 colon) | GI50 (MALME-3M melanoma) | GI50 (MDA-MB-435) | GI50 (SF-539 CNS) | GI50 (SK-OV-3 ovarian) | GI50 (SNB-19 CNS) |
| --- | --- | --- | --- | --- | --- | --- | --- | --- | --- | --- | --- | --- | --- | --- | --- | --- | --- | --- | --- | --- |
| O=C(NC12CC3CC(CC(C3)C1)C2)n1cnc2cncnc21 | > 100 µM | > 100 µM | 37.4 µM | > 100 µM | > 100 µM | 78.6 µM | > 100 µM | 54.5 µM | 47.1 µM | > 100 µM |  |  |  |  |  |  |  |  |  |  |
| O=c1[nH]/c(=C/c2cccs2)c(=O)[nH]/c1=C/c1ccc(OCc2ccccc2)cn1 | > 100 µM | 8.35 µM | 12.5 µM | 5.04 µM | 0.853 µM | 0.726 µM | 0.0182 µM | 12.5 µM | 16.1 µM | > 46.2 µM |  |  |  |  |  |  |  |  |  |  |
| CCCCOP(=O)(OCCCC)C(NS(=O)(=O)c1ccccc1)(C(=O)OCC)C(F)(F)F (stereo not given) | 85.1 µM | > 100 µM | 38.7 µM | > 100 µM | > 100 µM | 45.4 µM | 56.3 µM | 38.3 µM | > 100 µM | > 100 µM |  |  |  |  |  |  |  |  |  |  |
| Cc1ccc(N=c2oc3c(ccc4ccccc43)nc2Nc2ccc(C)cc2)cc1 | > 100 µM | > 100 µM | > 100 µM | > 100 µM | > 100 µM | > 100 µM | > 100 µM | > 100 µM | > 100 µM | > 100 µM |  |  |  |  |  |  |  |  |  |  |
| Cc1cc([C@H](C#N)c2nc3ccccc3s2)nc(Cl)n1 | 78.5 µM | 31 µM | 6.49 µM | 91.7 µM | 16.3 µM | 17 µM | 19.6 µM | 64 µM | 56.5 µM | > 100 µM |  |  |  |  |  |  |  |  |  |  |
| CCOC(=O)Cn1c(=O)c2cc(C)cc3c(Cl)nc4c(OC)c(OC)cc1c4c32 | > 100 µM | > 100 µM | > 100 µM | > 100 µM | > 100 µM | > 100 µM | > 100 µM | > 100 µM | > 100 µM | > 100 µM |  |  |  |  |  |  |  |  |  |  |
| COC(=O)/C=C1\C(=O)N(C(C)=O)c2ccccc21 | 20.1 µM | 0.184 µM | 29.3 µM | 24.1 µM | 31.4 µM | 27.5 µM | 32.2 µM | > 46.4 µM | 29.7 µM | > 51.9 µM |  |  |  |  |  |  |  |  |  |  |
| CCOC(=O)n1c2ccccc2c2c(O)c(OC)c3c(c21)C(=O)NC3=O | > 100 µM | 64.7 µM | 52.2 µM | > 100 µM | > 100 µM | 95.4 µM | > 100 µM | > 100 µM | > 100 µM | > 100 µM |  |  |  |  |  |  |  |  |  |  |
| CN(C)c1ccc(C(=C2C=CC(=[N+](C)C)C=C2)c2c(O)c(S(=O)(=O)[O-])cc3cc(S(=O)(=O)O)ccc23)cc1 | > 100 µM | > 100 µM | > 100 µM | > 100 µM | > 100 µM | > 100 µM | > 100 µM | > 100 µM | > 100 µM | > 100 µM |  |  |  |  |  |  |  |  |  |  |
| Cc1cc(C)c2c(=O)n(CC(O)CN3CCN(c4ncccn4)CC3)sc2n1 (stereo not given) | 32.4 µM | 39.5 µM | 33 µM | 30.2 µM | 32.9 µM | 37.5 µM | 30.1 µM | 31.6 µM | 32.8 µM | > 100 µM |  |  |  |  |  |  |  |  |  |  |
| Nc1c2c(nc3ccccc13)-c1ccccc1CCC2 | 26.5 µM | 32.5 µM | 27.1 µM | 32.8 µM | 12.2 µM | 27.5 µM | 26.3 µM | 26.2 µM | 31 µM | 55.4 µM |  |  |  |  |  |  |  |  |  |  |
| O=C(/C=C/c1ccco1)c1ccc(Nc2ccnc3cc(Cl)ccc23)cc1 | > 100 µM | > 100 µM | > 100 µM | > 100 µM | > 100 µM | > 100 µM | > 100 µM | > 100 µM | > 100 µM | > 100 µM | > 100 µM | > 100 µM | 39.2 µM | 9.33 µM | > 100 µM | > 100 µM | > 100 µM | 15 µM | > 100 µM | > 100 µM |
| CCOC(=O)C(C(N)=O)c1nc2cc([N+](=O)[O-])ccc2nc1/C=C(\O)c1ccc(C)cc1 (stereo not given) | > 52.6 µM | > 100 µM | > 93.2 µM | > 100 µM | 62.7 µM | > 100 µM | > 100 µM | 36.5 µM | 39.4 µM | 48.3 µM |  |  |  |  |  |  |  |  |  |  |
| CC(=O)Nc1ccc(S(=O)(=O)/N=c2/sc(S(N)(=O)=O)nn2C)cc1 | > 100 µM | > 100 µM | > 100 µM | > 100 µM | > 100 µM | > 100 µM | > 100 µM | > 100 µM | > 100 µM | > 100 µM |  |  |  |  |  |  |  |  |  |  |
| CCCCc1ccc(Nc2nc(N)c3[nH]cnc3n2)cc1 | 35.5 µM | 37.7 µM | 38.1 µM | 56.7 µM | 46.4 µM | 38.1 µM | 40.6 µM | 43.4 µM | 52.7 µM | 37.8 µM |  |  |  |  |  |  |  |  |  |  |
| COC(=O)c1ccc2c(c1)CCN2C(=O)c1cc2c(cc1Br)OCO2 | 49.3 µM and > 100 µM | 50 µM and > 100 µM | 2.62 µM and 3.9 µM | 26.9 µM and > 100 µM |  | 50 µM | 0.994 µM |  | > 100 µM | 12.8 µM and > 100 µM | 6.56 µM | 0.953 µM | 1.13 µM | 3.02 µM | 21.2 µM |  |  | 2.93 µM |  | 1.31 µM |
| O=C(NCCc1ccc(F)cc1)c1cc(/C=C/c2cc(O)ccc2O)ccc1O | 4.25 µM | 15 µM | 13.6 µM | 33.2 µM | 26 µM | 5.92 µM | 22 µM | 5.84 µM | 27.9 µM | 20.8 µM |  |  |  |  |  |  |  |  |  |  |
| O=C(O)CC(Cc1ccccc1)C(=O)O (stereo not given) | > 100 µM | > 100 µM | > 100 µM | > 100 µM | > 100 µM | > 100 µM | > 100 µM | > 100 µM | > 100 µM | > 100 µM |  |  |  |  |  |  |  |  |  |  |
| c1ccc2c(c1)N=c1ccccc1=P21c2ccccc2Nc2ccccc21 | 10.9 µM | 8.02 µM | 0.366 µM | 10.5 µM | 4.06 µM | 0.868 µM | 2.35 µM | 9.24 µM | 5.82 µM | 7.26 µM |  |  |  |  |  |  |  |  |  |  |
| COc1c2c(cc3oc(=O)ccc13)OC(C)(C)C=C2 | 70 µM | 29 µM | 73.6 µM | 55.9 µM | 46.3 µM | 87.8 µM | 68.7 µM | > 125 µM | > 125 µM | > 125 µM |  |  |  |  |  |  |  |  |  |  |
| CN(CCN(C)Cc1ccc(Cl)c(Cl)c1)CCN1CCCC1 | > 100 µM | > 100 µM | 41.2 µM | > 100 µM | 32.2 µM | 35.8 µM | 24.3 µM | > 59.7 µM | > 100 µM | > 100 µM |  |  |  |  |  |  |  |  |  |  |
| O=C(OCc1ccccc1[N+](=O)[O-])N1c2ccccc2[C@@]23O[C@]24CCC[C@H]3C#C/C=C\C#C[C@H]14 | > 100 µM | > 100 µM | > 100 µM | > 100 µM | > 100 µM | > 100 µM | > 100 µM | > 100 µM | > 100 µM | > 100 µM |  |  |  |  |  |  |  |  |  |  |
| CO/C=C(/C(=O)OC)c1ccccc1[C@H]1C[C@@H]1c1ccc(OC)cc1 | 74.2 µM | 57.4 µM | 25.8 µM | > 100 µM | 42.7 µM | 46.8 µM | 27.8 µM | 38 µM | 60.7 µM | > 100 µM |  |  |  |  |  |  |  |  |  |  |
| COC(=O)[C@@]12CC3CN(Cc4c1[nH]c1ccccc41)C2CC3=O | > 100 µM | > 100 µM | > 100 µM | > 100 µM | > 100 µM | > 100 µM | > 100 µM | > 100 µM | > 100 µM | > 100 µM |  |  |  |  |  |  |  |  |  |  |
